# Tests used:
# [1] = Karl Fischer moisture content measurement (volumetric titration method); type: physicochemical; details: atmosphere of 25° C., as obtained
# Procedure: The moisture content rates of the hydrate crystals obtained in Production Examples 1 and 2, and the anhydrous crystals used as a raw material in Production Example 1 were measured with a Karl Fischer moisture meter (CA-310, manufactured by Nittoseiko Analytech Co., Ltd.). The test was conducted in conformance with the description in The Japanese Pharmacopoeia, 18th Edition, “2.48 Water Determination (Karl Fischer Method)”, Volumetric titration. The measurement was performed in an atmosphere of 25° C., with the conditions set to a forced delay time of 2 minutes after sample administration, a minimum amount to be titrated of 2 μL, and an end point voltage of 140 mV. More specifically, it was as follows. First, into a measuring flask, methanol for moisture measurement (Aquamicron Dehydrated Solvent GEX, manufactured by Mitsubishi Chemical Corporation) was loaded, and 30 mg of water was added thereto to titrate the mixture with a Karl Fischer reagent (Aquamicron SS-Z, manufactured by Mitsubishi Chemical Corporation). After titration, a titer (mg/mL) of the reagent was determined from the amount titrated. Next, about 0.1 g of a measurement sample was precisely weighed and added into the measuring flask to titrate the mixture with a Karl Fischer reagent. The moisture content (w/w %) in the sample was calculated from the amount titrated and the previously determined titer.
# [2] = test system: Malassezia globosa (IFM 51946); experiment: Antifungal activity test, minimum fungicidal concentration (MFC100); type: cell-based; details: 1 minute contact, culture 32° C. for 72 hours, read-out: Minimal fungicidal concentration (MFC100)
# Procedure: (§1) Fungi of Malassezia (Malassezia furfur, Malassezia sympodialis, and Malassezia globosa) that had been cultured on a CHROMagar (trademark) Malassezia/Candida raw medium (peptone, specialized enzyme-substrate mixture, chloramphenicol, olive oil, agar, manufactured by KANTO CHEMICAL CO., INC.) for 5 to 7 days was suspended in physiological saline to prepare so as to have an absorbance of 0.025 at 600 nm. The compound under test dissolved in DMSO was added thereto so as to have final concentrations of 200, 100, 50, and 25 ppm. 1 minute later, 10 μL of suspension and 10 mL of physiological saline were added to a syringe and stirred, and then the mixture was filtered by connecting to a 37 mm quality monitor (manufactured by Pall Corporation) and washed twice with 10 ml of physiological saline. The membrane filters were removed from the quality monitor, and placed and cultured on the CHROMagar (trademark) Malassezia/Candida raw medium at 32° C. for 72 hours, and the presence or absence of the development of colonies was examined to determine a minimum fungicidal concentration (MFC100). Minimum fungicidal concentrations (MFC100) for Malassezia furfur (IFM 55951), Malassezia sympodialis (IFM 48588), and Malassezia globosa (IFM 51946) were determined in the same method as in Test Example 10 except that the hydrate crystal (Production Example 2) was used as the compound under test.
# [3] = test system: Malassezia furfur (IFM 55951); experiment: as above; type: cell-based; details: 1 minute contact, culture 32° C. for 72 hours, read-out: Minimal fungicidal concentration (MFC100)
# Procedure: as §1
# [4] = test system: Malassezia sympodialis (IFM 48588); experiment: as above; type: cell-based; details: 1 minute contact, culture 32° C. for 72 hours, read-out: Minimal fungicidal concentration (MFC100)
# Procedure: as §1
# [5] = Test of triboelectrification properties; type: physicochemical; details: 25° C. and 50% RH
# Procedure: First, the sample was loaded into a levelled stainless steel petri dish having φ50 mm×a height of 15 mm, and then it was statically eliminated with a static eliminator (STABLO AP, manufactured by SHIMADZU CORPORATION). The surface potential of the sample was measured with a surface electrometer (SV-77A, manufactured by NIPPON STATIC CO., LTD.) that had previously been zero-point adjusted, to confirm that it was statically eliminated (within −1 to +1 kV). Next, the sample surface of the petri dish loaded with the sample was scraped back and forth 20 times with a stainless steel metal plate for 10 seconds to charge the sample surface. After that, the petri dish loaded with the charged sample was placed on a metal plate (30 cm×30 cm) connected with a ground wire. The surface potential of the sample was measured over time for 20 minutes with the above surface electrometer. The triboelectrification properties were evaluated from the initial surface potential. In addition, the retention rate was calculated from the surface potential after 20 minutes and the initial surface potential to evaluate charge attenuation properties. Note that the test was conducted in an electrostatic measurement chamber (Tabai ESPEC CORP.) set to 25° C. and 50% RH, and the surface potential measurement was conducted at a distance of 1 cm from the sample surface.
# [6] = test system: Microsporum canis (IFM63627); experiment: Antifungal activity test, minimum inhibitory concentration (MIC100); type: cell-based; details: Sabouraud medium, 32° C. for 72 hours
# Procedure: Microsporum canis was cultured on a 1/10 Sabouraud medium at 32° C. for 168 hours to form spores. Then, 10 mL of physiological saline solution (OTSUKA NORMAL SALINE; containing the equivalent of 9 g of sodium chloride in 1000 mL) was directly added over the medium, and the surface was scraped with a disposable loop (Type 1 (1 μL) to collect a spore suspension containing mycelia. The spore suspension containing mycelia was filtered through a cell strainer (+40 μm). Spores were collected from a filtrate by centrifugation (3500 rpm, 5 minutes), and washed twice with physiological saline to prepare a spore suspension (1×10^7 cells/mL). 10 μL of the spore suspension was inoculated into a Sabouraud medium to which the compound under test dissolved in DMSO was added so as to have a predetermined concentration. Microsporum canis was cultured at 32° C. for 72 hours, and then the presence or absence of the development of colonies was examined to determine a minimum inhibitory concentration (MIC100).
# A minimum inhibitory concentration (MIC100) for Microsporum canis (IFM63627) was determined in the same method as in Test Example 7 except that the hydrate crystal (Production Example 2) was used as the compound under test.
# [7] = test system: Staphylococcus pseudintermedius (JCM 17571); experiment: Antimicrobial activity test, minimum bactericidal concentration (MBC100); type: cell-based; details: JCM17571, S. pseudintermedius, 1 minute contact, then culture at 30° C. for 72 hours
# Procedure: Staphylococcus pseudintermedius that had been cultured on a Luria Broth (LB) agar medium plate (peptone, yeast extract, sodium chloride, agar, from Invitrogen) for 24 hours was suspended in physiological saline to prepare so as to have an absorbance of 0.025 at 600 nm. The compound under test dissolved in DMSO was added thereto so as to have final concentrations of 200, 100, 50, and 25 ppm, and 1 minute later, 10 μL of suspension and 10 mL of physiological saline were added to a syringe and stirred. After that, the mixture was filtered by connecting to a 37 mm quality monitor (manufactured by Pall Corporation) and washed twice with 10 ml of physiological saline. As such, membrane filters were permeated with an LB medium, culturing was performed at 30° C. for 72 hours, the presence or absence of the development of colonies was examined to determine a minimum bactericidal concentration (MBC100). A minimum bactericidal concentration (MBC100) for Staphylococcus pseudintermedius (JCM 17571) was determined in the same method as in Test Example 6 except that the hydrate crystal (Production Example 2) was used as the compound under test.
smiles,measurement,setting,value
"Cc1ccc(-c2nc(C#N)[nH]c2Cl)cc1Cl [Anhydrous crystal, 5-chloro-4-(3-chloro-4-methylphenyl)-1H-imidazole-2-carbonitrile]",Karl Fischer moisture content,[1],0.1 wt %
same,MFC,[2],50 µg/mL
same,MFC,[3],50 µg/mL
same,MFC,[4],50 µg/mL
same,Electrification voltage,"[5]; 0 minutes after charging, listed as Anhydrate crystal",−5.42 kv
same,Electrification voltage,"[5]; 20 minutes after charging, listed as Anhydrate crystal",−5.39 kv
same,Decrease of potential retention rate,[5]; at 20 minutes later,almost no change
same,Retention rate,"[5]; surface potential after 20 minutes vs initial, listed as Anhydrate crystal",99.4%
same,MIC,[6],5 µg/mL
same,MBC,[7],50 µg/mL

# From patent publication US20250026725A1, “HYDRATE CRYSTAL OF 5-CHLORO-4-(3-CHLORO-4- METHYLPHENYL)-1H-IMIDAZOLE-2-CARBONITRILE” (ISHIHARA SANGYO KAISHA, LTD., priority 2021, published 2025)
